Measured values as given in PMC12724327, “Structure-guided discovery of a small molecule inhibitor of SARS-CoV-2 main protease with potent in vitro and in vivo antiviral activities” (Journal of Virology, 2025).
Where two headings read alike, the source gives them in different places.

Columns and labels:
[1] = system: SARS-CoV-2; experiment: In vivo antiviral evaluation in the golden Syrian hamster model
[2] = system: SARS-CoV-2 Alpha strain (B.1.1.7); type: in vivo, K18-hACE2 mice
[3] = biological target: SARS-CoV-2 M^pro (Severe acute respiratory syndrome coronavirus 2, UniProt P0DTD1); experiment: biochemical; type: biochemical; details: for IC50: 150 nM enzyme, 30 min pre-incubation at 37°C
[4] = system: SARS-CoV-2 B.1.1.7/Alpha; experiment: Viral load reduction assay in VeroE6-TMPRSS2 cells, Alpha; type: cell-based
[5] = biological target: T1, Cathepsin L (Homo sapiens, UniProt P07711); experiment: Selectivity assay, Cathepsin L inhibitor screening kit; type: biochemical
T1 construct: purchased BioVision K161-100
Protocol: (§1) The biochemical activity against several common human cysteine proteases was assessed using Cathepsin B inhibitor screening kit (BioVision, K147-100), Cathepsin L inhibitor screening kit (BioVision, K161-100), and Caspase 2 inhibitor drug screening kit (BioVision, K152-100) following the manufacturer’s instructions.

[6] = system: SARS-CoV-2 XBB.1.5; experiment: Viral load reduction assay in VeroE6-TMPRSS2 cells, XBB.1.5; type: cell-based
[7] = system: SARS-CoV-2 B.1.617.2/Delta; experiment: Viral load reduction assay in VeroE6-TMPRSS2 cells, Delta; type: cell-based
[8] = system: SARS-CoV-2 EG.5.1; experiment: Viral load reduction assay in VeroE6-TMPRSS2 cells, EG.5.1; type: cell-based
[9] = 300 mg/kg/day for three days, body weight recorded 14 days, no virus infection
[10] = system: SARS-CoV-2 Omicron BA.5.2; experiment: Viral load reduction assay in VeroE6-TMPRSS2 cells, BA.5.2; type: cell-based
[11] = system: SARS-CoV-2; experiment: Antiviral activity in human lung Calu-3 cells; type: cell-based; details: Severe acute respiratory syndrome coronavirus 2
[12] = biological target: T2, Caspase 2 (Homo sapiens, UniProt P42575); experiment: Selectivity assay, Caspase 2 inhibitor drug screening kit; type: biochemical
T2 construct: purchased BioVision K152-100
Protocol: as §1

[13] = system: VeroE6-TMPRSS2 cells; details: 48 h, CellTiter-Glo
Protocol: (B) Cytotoxicity of H135 in VeroE6-TMPRSS2 cells was measured by CellTiter-Glo assay for 48 h.

[14] = system: WT SARS-CoV-2 HKU-001a; type: cell-based
[15] = system: SARS-CoV-2 JN.1.1; experiment: Viral load reduction assay in VeroE6-TMPRSS2 cells, JN.1.1; type: cell-based
[16] = biological target: T3, Cathepsin B (Homo sapiens, UniProt P07858); experiment: Selectivity assay, Cathepsin B inhibitor screening kit; type: biochemical
T3 construct: purchased BioVision K147-100
Protocol: as §1

T1 sequence (P07711 114-333): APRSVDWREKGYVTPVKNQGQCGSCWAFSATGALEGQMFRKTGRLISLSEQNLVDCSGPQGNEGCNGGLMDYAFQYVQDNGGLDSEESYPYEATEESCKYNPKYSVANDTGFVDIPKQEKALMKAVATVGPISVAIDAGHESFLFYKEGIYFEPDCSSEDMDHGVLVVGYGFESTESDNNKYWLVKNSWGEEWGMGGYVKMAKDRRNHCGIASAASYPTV
T2 sequence (P42575 348-452): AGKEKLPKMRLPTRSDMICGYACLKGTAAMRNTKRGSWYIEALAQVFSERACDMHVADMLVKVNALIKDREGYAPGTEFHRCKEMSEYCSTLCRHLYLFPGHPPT
T2 sequence (P42575 170-325): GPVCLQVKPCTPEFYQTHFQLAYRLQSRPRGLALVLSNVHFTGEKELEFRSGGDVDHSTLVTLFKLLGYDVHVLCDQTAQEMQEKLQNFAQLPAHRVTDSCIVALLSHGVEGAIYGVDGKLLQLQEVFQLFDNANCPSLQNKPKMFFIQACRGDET

CC(C)(C)[C@H](NC(=O)C(F)(F)F)C(=O)N1C[C@H]2[C@@H]([C@H]1C(=O)N[C@H](C#N)C[C@@H]1CCNC1=O)C2(C)C [PF-07321332, nirmatrelvir, reference compound]
live virus titer in hamster lungs ([1]; […], H135 300 mg/kg IP QD, nirmatrelvir 300 mg/kg PO BID, three days, P < 0.001 vs DMSO): significantly reduced | body weight of infected mice ([2]; 150 mg/kg daily intraperitoneal, […]): body weight benefits | mice protected from death ([2]; mouse, in vivo): 40%

CC(C)(C)OC(=O)N[C@H](C(=O)N1C[C@H](OC(F)(F)F)C[C@H]1C(=O)N[C@H](C#N)C[C@@H]1CCNC1=O)C(C)(C)C [H121]
IC50 ([3]; mean ± SEM): 68.6 ± 2 nM

N#C[C@H](C[C@@H]1CCNC1=O)NC(=O)[C@@H]1C[C@@H](OC(F)(F)F)CN1C(=O)[C@@H](NC(=O)C1(F)CC1)C1CCCCC1 [H135]
decrease of viral yield in cell culture supernatant [4]: more than 5 log10 | IC50 [5]: > 100000 nM | decrease of viral yield in cell culture supernatant [6]: more than 5 log10 | decrease of viral RNA copies in lung ([1]; hamster, in vivo): ~ 0.7 log | decrease of viral RNA copies in trachea ([1]; hamster, in vivo): ~ 0.65 log | live virus titer in hamster lungs ([1]; hamster, in vivo): significantly reduced | decrease of viral yield in cell culture supernatant [7]: more than 5 log10 | decrease of viral yield in cell culture supernatant [8]: more than 5 log10 | toxicity as reflected by animal body weight change [9]: Negligible toxicity | decrease of viral yield in cell culture supernatant [10]: more than 5 log10 | EC50 [11]: 122 ± 13 nM | IC50 [12]: > 100000 nM | dose up to which no cytotoxicity was found [13]: ≥ 400 µM | decrease of viral yield in cell culture supernatant [14]: ~ 7 log10 | decrease of viral yield in cell culture supernatant [15]: more than 5 log10 | IC50 [16]: > 100000 nM | body weight of infected mice ([2]; mouse, in vivo): less body weight loss | delayed death ([2]; mouse, in vivo): 0.6 day/mouse | fatality rate ([2]; mouse, in vivo): 100% | reduction of SARS-CoV-2 live virus titers in mouse lung ([2]; mouse, in vivo): more than 2 logs10 | IC50 ([3]; mean ± SEM): 12.7 ± 0.1 nM | Ki ([3]; read-out: inhibitory constant (Ki)): 156 nM | SARS-CoV-2 M^pro inhibitory potency enhanced ([3]; relative to hit compound H109): 32 folds

CC(C)(C)OC(=O)N[C@H](C(=O)N1C[C@H](Oc2ccccc2)C[C@H]1C(=O)N[C@H](C#N)C[C@@H]1CCNC1=O)C(C)(C)C [H140]
IC50 [3]: 6770 nM

CC(C)(C)OC(=O)N[C@H](C(=O)N1C[C@H](OC(F)F)C[C@H]1C(=O)N[C@H](C#N)C[C@@H]1CCNC1=O)C(C)(C)C [H117]
IC50 ([3]; mean ± SEM): 151 ± 5.2 nM

CC(C)(C)[C@H](NC(=O)N1CC2(COC2)C1)C(=O)N1C[C@H](OC(F)F)C[C@H]1C(=O)N[C@H](C#N)C[C@@H]1CCNC1=O [H129]
IC50 ([3]; mean ± SEM): 924 nM

CC(C)(C)OC(=O)N[C@H](C(=O)N1C[C@H](OC(F)F)C[C@H]1C(=O)N[C@H](C#N)C[C@@H]1CCNC1=O)C1CCCC1 [H131]
IC50 ([3]; mean ± SEM): 79.2 ± 2.1 nM

CC(C)(C)OC(=O)N1C[C@H](OC(F)F)C[C@@H]1C(=O)N1C[C@H](OC(F)F)C[C@H]1C(=O)N[C@H](C#N)C[C@@H]1CCNC1=O [H141]
IC50 [3]: > 25000 nM

CC(C)(C)[C@H](NC(=O)C1CCC(F)(F)CC1)C(=O)N1C[C@H](OC(F)F)C[C@H]1C(=O)N[C@H](C#N)C[C@@H]1CCNC1=O [H123]
IC50 ([3]; mean ± SEM): 860.9 ± 5.1 nM

CC(C)(C)[C@H](NC(=O)C1(F)CC1)C(=O)N1C[C@H](OC(F)F)C[C@H]1C(=O)N[C@H](C#N)C[C@@H]1CCNC1=O [H124]
IC50 ([3]; mean ± SEM): 102 ± 2 nM

N#C[C@H](C[C@@H]1CCNC1=O)NC(=O)[C@@H]1C[C@@H](OC(F)F)CN1C(=O)[C@@H](NC(=O)C1(F)CC1)C1CCCCC1 [H136]
IC50 ([3]; mean ± SEM): 43.4 ± 2 nM

CC(C)(C)OC(=O)N[C@H](C(=O)N1C[C@H](OCc2ccccc2)C[C@H]1C(=O)N[C@H](C#N)C[C@@H]1CCNC1=O)C(C)(C)C [H139]
IC50 [3]: 3410 nM

CC(C)(C)OC(=O)N[C@H](C(=O)N[C@@H](Cc1ccccc1)C(=O)N[C@H](C#N)C[C@@H]1CCNC1=O)C(C)(C)C [H109]
IC50 ([3]; mean ± SEM): 407 ± 5.6 nM

CO[C@@H]1C[C@@H](C(=O)N[C@H](C#N)C[C@@H]2CCNC2=O)N(C(=O)[C@@H](NC(=O)OC(C)(C)C)C(C)(C)C)C1 [H138]
IC50 [3]: 2960 nM

CC(C)(C)OC(=O)N[C@H](C(=O)N1C[C@H](OC(C)(C)C)C[C@H]1C(=O)N[C@H](C#N)C[C@@H]1CCNC1=O)C(C)(C)C [H118]
IC50 ([3]; mean ± SEM): 310 ± 18.9 nM

CC(C)(C)[C@H](NC(=O)C(F)(F)F)C(=O)N1C[C@H](OC(F)F)C[C@H]1C(=O)N[C@H](C#N)C[C@@H]1CCNC1=O [H122]
IC50 ([3]; mean ± SEM): 106 ± 2.8 nM

CC(C)(C)OC(=O)N[C@H](C(=O)N1C[C@H](OC(F)F)C[C@H]1C(=O)N[C@H](C#N)C[C@@H]1CCNC1=O)C1CCCCC1 [H130]
IC50 ([3]; mean ± SEM): 70.1 ± 2.8 nM

CN(C(=O)[C@@H](NC(=O)OC(C)(C)C)C(C)(C)C)[C@@H](Cc1ccccc1)C(=O)N[C@H](C#N)C[C@@H]1CCNC1=O [H119]
IC50 ([3]; mean ± SEM): 625 ± 10.5 nM | decrease in enzyme inhibitory activity ([3]; relative to H109): 1.5 fold
